# Measured values as given in BindingDB's records for doi:10.1002/cbic.201200524 (Mcgill University, 2012).
# Molecular target: Cytochrome P450 2E1 (Homo sapiens, UniProt P05181)
# Assay: Spectral Binding Assay
# Source text: All UV/Vis spectra of the enzyme-ligand complexes were obtained on a Cary 5000 UV/Vis spectrophotometer.
# Sequence of Cytochrome P450 2E1 (P05181 whole entry): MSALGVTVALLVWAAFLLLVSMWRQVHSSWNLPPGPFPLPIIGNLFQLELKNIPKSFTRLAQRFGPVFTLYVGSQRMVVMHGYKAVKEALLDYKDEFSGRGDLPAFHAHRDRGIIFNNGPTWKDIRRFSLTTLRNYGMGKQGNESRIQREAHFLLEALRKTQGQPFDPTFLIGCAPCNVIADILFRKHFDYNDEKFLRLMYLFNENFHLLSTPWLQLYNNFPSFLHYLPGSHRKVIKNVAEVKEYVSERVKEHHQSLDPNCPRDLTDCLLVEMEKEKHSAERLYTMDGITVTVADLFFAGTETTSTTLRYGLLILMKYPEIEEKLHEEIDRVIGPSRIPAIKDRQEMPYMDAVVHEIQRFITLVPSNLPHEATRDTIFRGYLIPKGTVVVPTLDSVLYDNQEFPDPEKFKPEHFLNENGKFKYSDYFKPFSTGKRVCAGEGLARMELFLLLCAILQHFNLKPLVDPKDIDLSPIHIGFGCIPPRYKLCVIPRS
row,Compound,Kd [nM]
1,"CCC(C)CCOC(=O)c1cccnc1 (stereo not drawn) [Auxiliary substrate, 10a]",2600
2,"CCCCCOC(=O)c1cccnc1 [Auxiliary substrate, 12a]",5900
3,"C=CCCOC(=O)c1cccnc1 [Auxiliary substrate, 18a]",12000

# Molecules with a lower Kd, results first:
row,Kd [nM],Compound
1,1400,"CCCCCCOC(=O)c1cccnc1 [Auxiliary substrate, 1a]"
2,1800,"CC(C)CCCCOC(=O)c1cccnc1 [Auxiliary substrate, 11a]"
3,2100,"CCCCCCCCOC(=O)c1cccnc1 [Auxiliary substrate, 14a]"
4,1300,"CC/C=C/CCOC(=O)c1cccnc1 [Auxiliary substrate, 16a]"
5,1600,"O=C(OCC1CCCC1)c1cccnc1 [Auxiliary substrate, 20a]"
